In PubChem BioAssay (NCI):
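Following 48 hours of exposure in 96-well plates, responses at five concentrations were used to interpolate endpoints linearly. GI50 = concentration required for 50% inhibition of growth. Definition used: TGI = concentration required for complete inhibition of growth.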

What was measured:
Assay in all cases: NCI-60 cell line screen, 48 h
786-0 renal = system: 786-0 renal
BT-549 breast = system: BT-549 breast
CAKI-1 renal = system: CAKI-1 renal
M14 melanoma = system: M14 melanoma
MDA-MB-435 = system: MDA-MB-435
NCI-H226 lung = system: NCI-H226 lung
NCI/ADR-RES ovarian = system: NCI/ADR-RES ovarian
UO-31 renal = system: UO-31 renal

Row | Compound | GI50 (786-0 renal) [µM] | TGI (786-0 renal) [µM] | GI50 (BT-549 breast) [µM] | TGI (BT-549 breast) [µM] | GI50 (CAKI-1 renal) [µM] | TGI (CAKI-1 renal) [µM] | GI50 (M14 melanoma) [µM] | TGI (M14 melanoma) [µM] | GI50 (MDA-MB-435) [µM] | TGI (MDA-MB-435) [µM] | GI50 (NCI-H226 lung) [µM] | TGI (NCI-H226 lung) [µM] | GI50 (NCI/ADR-RES ovarian) [µM] | TGI (NCI/ADR-RES ovarian) [µM] | GI50 (UO-31 renal) [µM] | TGI (UO-31 renal) [µM]
1 | CN(C)CCOc1nc2ccccc2c2c1-c1ccc(Cl)cc1C2=O | 0.889 | 3.26 | 2.01 | 4.59 | 0.499 | 5.18 | 1.12 | 2.72 | 0.489 | 1.88 | 0.735 | 8.65 | 0.696 | 4.4 | 0.222 | 1.27
2 | CN(NC(=O)CC(=O)NN(C)C(=S)c1ccc(Cl)cc1)C(=S)c1ccc(Cl)cc1 | 24.6 | > 100 | 12.9 | 53 | 13.6 | > 100 | 14.1 | 59.3 | 24.4 | > 100 | 13.2 | 45.3 | 13.6 | 63.7 | 10.4 | > 100
3 | Cc1cccnc1CNC1CC(NCc2ncccc2C)CC(NCc2ncccc2C)C1 (centres undefined) | 2.15 | 4.55 | 2.95 | 7.82 | 4.84 | 21.8 | 1.96 | 4.35 | 4.16 | 10.7 | 1.65 | 3.17 | 19.3 | > 100 | 4.85 | 22.5
4 | CCS/C(Nc1ccccc1)=C(\C#N)C(=O)N/N=C/c1ccc(Cl)cc1Cl | 3.5 | > 100 | 2.8 | > 100 | 2.39 | > 100 | 2.01 | 9.61 | 0.419 | 2.23 | 4 | > 100 | 3.16 | > 100 | 6.91 | > 100
5 | CCNCCNc1cc(-c2cccc(C(F)(F)F)c2)c(C#N)c2nc3ccccc3n12 | 1.02 | 2.33 | 2.06 | 3.75 | 1.54 | 3 | 1.71 | 3.25 | 1.52 | 2.88 | 1.64 | 3.64 | 1.81 | 3.86 | 0.603 | 2.07
6 | N#CC[C@H](C1CCCC1)n1cc(-c2ncnc3[nH]ccc23)cn1 | 12.9 | > 91.3 | 12.8 | 36 | 7.91 | > 100 | 30.3 | > 88.6 | 26.4 | > 93.2 | 9.28 | > 92.5 | 19.4 | > 100 | 4.53 | 82
7 | C[C@@H]1CN2[C@H]3[C@@H]1CC[C@]31CCC(=O)O[C@]1(C)[C@@H]1CC[C@H]3CCC=C3[C@@H]12 | > 70 | > 70 | > 70 | > 70 | > 70 | > 70 | > 70 | > 70 | 48.2 | > 70 | > 70 | > 70 | > 70 | > 70 | 43.5 | > 70
8 | Nc1cccc2nsnc12 | – | > 100 | – | > 100 | – | > 100 | – | > 100 | – | > 100 | – | > 100 | – | > 100 | – | > 100
9 | NC(=O)NC(=O)C1CCCCC1C(=O)O (centres undefined) | – | > 100 | – | > 100 | – | > 100 | – | > 100 | – | > 100 | – | > 100 | – | > 100 | – | > 100
10 | CCCCCCC1N=C(N)N=C(N)N1c1ccc(Cl)cc1 (centres undefined) | 4.63 | 47.1 | 3.37 | 18.3 | > 100 | > 100 | 3.04 | 23.5 | 3.36 | 17.5 | 13.2 | 54.2 | > 100 | > 100 | 57.1 | > 100
11 | O=C(CC1(O)C(=O)Nc2c(Cl)ccc(Cl)c21)c1ccc(C2CC2)cc1 (centres undefined) | 1.78 | 16.9 | 0.984 | 11 | 0.449 | 17.3 | 0.422 | 3.25 | 0.0882 | 0.272 | 3.05 | 25.5 | 0.406 | 14.7 | 1.58 | 19.6
12 | CC(=O)N[C@@H](Cc1ccc(OP(=O)(O)O)cc1)C(=O)N[C@H]1CCC(=O)N2CCC[C@@H](C(=O)NCc3ccc(O)cc3)N2C1=O | > 25 | > 25 | > 25 | > 25 | > 25 | > 25 | > 25 | > 25 | > 25 | > 25 | > 25 | > 25 | > 25 | > 25 | 24.2 | > 25
13 | COc1ccc(NC(=O)O[C@H]2[C@H](O[C@H]3[C@@H](O)COC(O[C@H]4C[C@H]5[C@@H]6CC=C7C[C@@H](O)CC[C@]7(C)[C@H]6CC[C@]5(C)[C@H]4[C@H](C)C(=O)CCC(C)C)[C@@H]3OC(C)=O)OC[C@@H](O)[C@@H]2O)cc1 (some centres undefined) | < 0.01 | 11.3 | < 0.01 | 11.3 | < 0.01 | 1.01 | < 0.01 | 0.0203 | < 0.01 | 0.0628 | 0.0725 | 17.3 | 3.78 | > 100 | 0.024 | 0.0978
14 | COc1cc(/C=C/C(=O)c2ccc(Nc3nc(Nc4ccccc4)nc(Nc4ccc(Cl)cc4)n3)cc2)cc(OC)c1OC | 9.84 | > 32.5 | 7.51 | > 32.5 | 11 | > 32.5 | 15.1 | > 32.5 | 11.3 | > 32.5 | 7.66 | > 32.5 | 31.5 | > 32.5 | 2.46 | > 32.5
15 | CC(C)N(C[C@H]1O[C@@H](n2cnc3c(N)ncnc32)[C@H](O)[C@@H]1O)C1CC(CCc2nc3ccc(C(C)(C)C)cc3[nH]2)C1 (some centres undefined) | > 100 | > 100 | > 60.5 | > 100 | > 100 | > 100 | > 72.2 | > 100 | > 54.7 | > 100 | > 100 | > 100 | > 100 | > 100 | > 100 | > 100
